Values belong to the molecule of their own block, whether it stands above or below them.
Key:
P2X purinoceptor 3 = molecular target: T1, P2X purinoceptor 3 (Rattus norvegicus, UniProt P49654); experiment: Antagonist activity at rat P2X3 receptor expressed in CHO cells by FLIPR; format: functional, cell-based
T1 sequence (P49654 whole entry): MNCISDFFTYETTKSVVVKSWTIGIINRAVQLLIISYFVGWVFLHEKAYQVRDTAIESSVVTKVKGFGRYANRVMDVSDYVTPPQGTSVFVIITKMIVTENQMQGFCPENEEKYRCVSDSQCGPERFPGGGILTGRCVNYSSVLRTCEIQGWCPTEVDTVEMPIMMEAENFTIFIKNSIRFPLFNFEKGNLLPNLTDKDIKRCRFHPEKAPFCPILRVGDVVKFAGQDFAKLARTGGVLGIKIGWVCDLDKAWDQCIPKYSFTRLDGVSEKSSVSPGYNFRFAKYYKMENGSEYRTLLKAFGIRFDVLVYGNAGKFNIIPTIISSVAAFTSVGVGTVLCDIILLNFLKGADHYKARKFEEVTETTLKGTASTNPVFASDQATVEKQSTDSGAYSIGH

[1] = molecular target: T2, P2X2/P2X3 heterotrimeric receptor (Homo sapiens, UniProt P56373+Q9UBL9); experiment: Antagonist activity at human P2X2/3 receptor expressed in 1321n1c cells by FLIPR; format: functional, cell-based
T2 sequence (Q9UBL9 whole entry): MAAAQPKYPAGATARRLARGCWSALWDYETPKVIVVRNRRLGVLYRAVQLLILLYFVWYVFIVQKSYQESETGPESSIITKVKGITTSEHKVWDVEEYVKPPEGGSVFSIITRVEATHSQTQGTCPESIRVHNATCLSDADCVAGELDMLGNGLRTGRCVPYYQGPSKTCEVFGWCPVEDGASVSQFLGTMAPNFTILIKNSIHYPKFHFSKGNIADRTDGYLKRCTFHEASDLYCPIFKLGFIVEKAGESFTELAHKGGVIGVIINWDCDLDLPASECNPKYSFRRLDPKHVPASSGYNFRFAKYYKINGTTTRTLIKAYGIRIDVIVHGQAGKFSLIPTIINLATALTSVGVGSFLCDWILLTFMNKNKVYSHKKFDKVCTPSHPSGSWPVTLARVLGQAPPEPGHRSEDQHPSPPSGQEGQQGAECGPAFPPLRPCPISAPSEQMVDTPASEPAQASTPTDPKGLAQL
T2 sequence (P56373 whole entry): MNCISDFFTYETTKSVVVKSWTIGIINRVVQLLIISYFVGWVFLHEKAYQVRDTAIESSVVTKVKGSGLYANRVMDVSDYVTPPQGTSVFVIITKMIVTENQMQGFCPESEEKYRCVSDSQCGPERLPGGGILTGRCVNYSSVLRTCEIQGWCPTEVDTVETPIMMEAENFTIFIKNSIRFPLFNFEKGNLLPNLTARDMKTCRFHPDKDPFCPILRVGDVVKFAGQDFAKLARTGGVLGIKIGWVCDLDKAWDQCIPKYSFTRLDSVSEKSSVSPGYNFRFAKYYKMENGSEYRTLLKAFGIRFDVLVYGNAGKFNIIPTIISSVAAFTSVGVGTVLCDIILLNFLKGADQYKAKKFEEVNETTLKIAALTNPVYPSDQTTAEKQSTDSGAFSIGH

[2] = Oral bioavailability in dog; format: ADME, organism-based, Canis lupus familiaris; conditions: in vivo
[3] = Half life in dog; format: ADME, organism-based, Canis lupus familiaris; conditions: in vivo
[4] = Tmax in rat at 2 mg/kg, iv administered as single dose; format: ADME, organism-based; design: dose 2 mg/kg, route intravenous; conditions: in vivo
[5] = Tmax in rat at 2 mg/kg, po administered as single dose; format: ADME, organism-based; design: dose 2 mg/kg, route oral; conditions: in vivo
[6] = Cmax in rat at 2 mg/kg, iv administered as single dose; format: ADME, organism-based; design: dose 2 mg/kg, route intravenous; conditions: in vivo
[7] = Cmax in rat at 2 mg/kg, po administered as single dose; format: ADME, organism-based; design: dose 2 mg/kg, route oral; conditions: in vivo
[8] = AUC in rat at 2 mg/kg, iv administered as single dose; format: ADME, organism-based; design: dose 2 mg/kg, route intravenous; conditions: plasma
[9] = AUC in rat at 2 mg/kg, po administered as single dose; format: ADME, organism-based; design: dose 2 mg/kg, route oral; conditions: plasma
[10] = Half life in rat at 2 mg/kg, iv administered as single dose; format: ADME, organism-based; design: dose 2 mg/kg, route intravenous; conditions: in vivo
[11] = Half life in rat at 2 mg/kg, po administered as single dose; format: ADME, organism-based; design: dose 2 mg/kg, route oral; conditions: in vivo
Rattus norvegicus = experiment: Clearance in rat at 2 mg/kg, iv administered as single dose; format: ADME, organism-based; design: dose 2 mg/kg, route intravenous; conditions: in vivo
[12] = Oral bioavailability in rat at 2 mg/kg administered as single dose; format: ADME, organism-based; conditions: in vivo
Canis familiaris = species on record: Canis familiaris; experiment: Clearance in dog; format: ADME, organism-based, Canis lupus familiaris; conditions: in vivo
P2X purinoceptor 5 = P2X purinoceptor 5 (Homo sapiens, UniProt Q93086); experiment: Antagonist activity at P2X5 receptor up to 10 uM; format: functional
[13] = Apparent permeability from apical to basolateral side of human Caco-2 cells; format: ADME, cell-based

Sequence of P2X purinoceptor 5 (Q93086 whole entry): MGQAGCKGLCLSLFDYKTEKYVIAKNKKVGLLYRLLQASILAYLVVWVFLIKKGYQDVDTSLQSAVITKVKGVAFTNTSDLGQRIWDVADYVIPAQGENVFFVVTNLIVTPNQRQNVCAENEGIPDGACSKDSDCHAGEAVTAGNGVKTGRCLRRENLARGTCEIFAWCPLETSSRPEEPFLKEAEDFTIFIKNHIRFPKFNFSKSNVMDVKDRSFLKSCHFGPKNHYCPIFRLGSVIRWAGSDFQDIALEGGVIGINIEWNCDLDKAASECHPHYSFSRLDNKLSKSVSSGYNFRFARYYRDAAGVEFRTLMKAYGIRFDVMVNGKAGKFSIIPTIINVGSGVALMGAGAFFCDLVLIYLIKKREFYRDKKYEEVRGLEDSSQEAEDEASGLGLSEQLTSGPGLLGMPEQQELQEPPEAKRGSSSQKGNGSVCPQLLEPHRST

IC50 (P2X purinoceptor 3; read-out: pIC50 (converted)): > 10000 nM
IC50 ([1]; read-out: pIC50 (converted)): > 10000 nM
SMILES: COc1cc(C(C)C)c(Oc2cnc(N(C)C)nc2N)cc1I

IC50 ([1]; read-out: pIC50 (converted)): 15.8 nM
SMILES: COc1cc(C(C)C)c(Oc2cnc(NCCO)nc2N)cc1I

IC50 (P2X purinoceptor 3; read-out: pIC50 (converted)): 100 nM
IC50 ([1]; read-out: pIC50 (converted)): 316 nM
SMILES: COc1cc(C(C)C)c(Oc2cnc(NC3CCN(S(C)(=O)=O)CC3)nc2N)cc1I

bioavailability [2]: 79%
half-life [3]: 233 min
IC50 (P2X purinoceptor 5): > 10 µM
Papp A→B [13]: 9.43 ×10⁻⁶ cm/s
Tmax [4]: 10 min
Tmax [5]: 0.833 h
Cmax [6]: 554 ng/mL
Cmax [7]: 104 ng/mL
AUC [8]: 495 ng·h/mL
AUC [9]: 237 ng·h/mL
half-life [10]: 64.2 min
half-life [11]: 91.2 min
clearance (Rattus norvegicus): 71.9 mL/min/kg
bioavailability [12]: 48%
clearance (Canis familiaris): 4.65 mL/min/kg
SMILES: COc1cc(C(C)C)c(Oc2cnc(NC(CO)CO)nc2N)cc1I

Second part, the molecule before the results:

SMILES: COc1cc(C(C)C)c(Oc2cnc(NCCN3CCOCC3)nc2N)cc1I
IC50 (P2X purinoceptor 3; read-out: pIC50 (converted)): 158 nM
IC50 ([1]; read-out: pIC50 (converted)): 398 nM

SMILES: COc1cc(C(C)C)c(Oc2cnc(NCC(F)(F)F)nc2N)cc1I
IC50 (P2X purinoceptor 3; read-out: pIC50 (converted)): 79.4 nM
IC50 ([1]; read-out: pIC50 (converted)): 200 nM

SMILES: COc1cc(C(C)C)c(Oc2cnc(NC(C)(C)CO)nc2N)cc1I
IC50 ([1]; read-out: pIC50 (converted)): 794 nM

SMILES: COc1cc(C(C)C)c(Oc2cnc(N)nc2N)cc1I
bioavailability [2]: 72%
half-life [3]: 90 min
IC50 (P2X purinoceptor 3; read-out: IC50): 13 nM
IC50 ([1]; read-out: IC50): 25 nM
IC50 ([1]; read-out: pIC50 (converted)): 39.8 nM
Tmax [4]: 4.98 min
Tmax [5]: 1.33 h
Cmax [6]: 589 ng/mL
Cmax [7]: 64.3 ng/mL
AUC [8]: 628 ng·h/mL
AUC [9]: 240 ng·h/mL
half-life [10]: 56.4 min
half-life [11]: 125 min
clearance (Rattus norvegicus): 52.8 mL/min/kg
bioavailability [12]: 39%
clearance (Canis familiaris): 13 mL/min/kg

SMILES: COc1cc(C(C)C)c(Oc2cnc(NCCN(C)C)nc2N)cc1I
IC50 (P2X purinoceptor 3; read-out: pIC50 (converted)): 158 nM
IC50 ([1]; read-out: pIC50 (converted)): 251 nM

From ChEMBL document CHEMBL1153300, “Identification and SAR of novel diaminopyrimidines. Part 2: The discovery of RO-51, a potent and selective, dual P2X(3)/P2X(2/3) antagonist for the treatment of pain” (Bioorg Med Chem Lett, 2009)
